Measured values: patent US10383332B2, “Antimicrobial compositions and related methods of use” (Jeneil Biosurfactant Company, LLC, priority 2013, dated 2019)

Key:
Experiment in all cases: Vapor test, microcup on PDA Petri plate
Settings in all cases: vapors
Aspergillus niger = system: Aspergillus niger
Cercospora beticola = system: Cercospora beticola
Pythium ultimum = system: Pythium ultimum
Phytophthora palmivora = system: Phytophthora palmivora
Rhizoctonia solani = system: Rhizoctonia solani
Aspergillus fumigatus = system: Aspergillus fumigatus
Geotrichum candidum = system: Geotrichum candidum
Botrytis alli = system: Botrytis alli

CCC(=O)O [Propanoic Acid, propanoic acid]
% inhibition, alone at 20 μl After 24 hr (C) (Aspergillus niger): 0%
Alive or dead, alone at 20 μl After 24 hr (C) (Aspergillus niger): Alive
% inhibition, alone at 20 μl After 24 hr (C) (Cercospora beticola): 75%
Alive or dead, alone at 20 μl After 24 hr (C) (Cercospora beticola): Alive
% inhibition, alone at 20 μl After 24 hr (C) (Pythium ultimum): 80%
Alive or dead, alone at 20 μl After 24 hr (C) (Pythium ultimum): Alive
% inhibition, alone at 20 μl After 24 hr (C) (Phytophthora palmivora): 100%
% inhibition, alone at 20 μl After 24 hr (C) (Rhizoctonia solani): 80%
Alive or dead, alone at 20 μl After 24 hr (C) (Rhizoctonia solani): Alive
% inhibition, alone at 20 μl After 24 hr (C) (Aspergillus fumigatus): 0%
Alive or dead, alone at 20 μl After 24 hr (C) (Aspergillus fumigatus): Alive
% inhibition, alone at 20 μl After 24 hr (C) (Geotrichum candidum): 0%
Alive or dead, alone at 20 μl After 24 hr (C) (Geotrichum candidum): Alive
% inhibition, alone at 20 μl After 24 hr (C) (Botrytis alli): 0%
Alive or dead, alone at 20 μl After 24 hr (C) (Botrytis alli): Alive
